Measured values from article PMC11272821, “Mechanistic safety assessment via multi-omic characterisation of systemic pathway perturbations following in vivo MAT2A inhibition” (Archives of Toxicology, 2024).

System: rat liver proteome
Experiment: Liver label-free quantitative proteomics
Format: in vivo
Details: for differentially expressed liver proteins vs vehicle control: adjusted p < 0.05 and Log2 FC > 0.5 or < −0.5
Experimental: Liver tissue were homogenized in PreOmics iST buffer (PreOmics) using a bead ruptor. […] Peptides were purified using PreOmics iST cartridges and vacuum-centrifuged to dryness. Peptides were subsequently reconstituted in 2 vol% ACN and 0.1 vol% formic acid for single-run LC–MS analysis. Peptides were analyzed using a Thermo EASY-nLC1200 coupled online to an Exploris 480 Mass Spectrometer equipped with a Nanospray Flex Ion Source integrated with a column oven (PRSO-V1, Sonation) and a FAIMS unit. Peptides were separated using a nonlinear gradient and analyzed by acquiring spectra through Data Independent Acquisition (DIA). Data was analyzed using Spectronaut V15.7.2 (Biognosys AG) direct DIA analysis using an isoform Rat database (UniProt downloaded 22.02.2021) consisting of 9,746 protein entries utilizing the Pulsar search engine. Analysis settings were maintained to factory settings and identification was set to 1% false discovery rate (FDR) for precursor and protein level. Additional information is provided in Supplementary M&M.
Data analysis was performed using R Statistical Software (version 4.3.0). Proteomics, transcriptomics and metabolomics expression changes were visualised using heatmaps showing log2 fold change relative to control. In the heatmaps missing values were highlighted in grey.
Proteomics Analysis. Liver tissue was placed in vials containing 1.4 mm zirconia beads and taken up in 500 µL of PreOmics iST buffer (PreOmics). In a cold room set to 4 °C, tissues were homogenized utilizing a bead Ruptor 12 by shaking for 30 seconds for a total of 5 times using ‘high’ setting. Lysate was normalized using BCA assay (Thermo Fisher Scientific), and subsequently incubated at 95 °C for 10 min for reduction, and alkylation of proteins. A total of 50 μg from each sample was subjected to enzymatic cleavage for 3 h by adding equal amounts of endoproteinase Lys-C and trypsin (ThermoFisher Scientific, # A40009) in a 1:50 (wt/wt) enzyme:protein ratio. De-salting and purification were performed according to the PreOmics iST protocol on a styrene divinylbenzene reversed-phase sulfonate sorbent. Purified peptides were vacuum-centrifuged to dryness and reconstituted in double-distilled water with 2 vol% ACN and 0.1 vol% formic acid (FA) for single-run LC-MS analysis.
Peptides were loaded onto a ReproSil-Pur 120 C18AQ 1.9 µm in-house packed to a 5 µm tip 75u ID × 360u × 50 cm column using Thermo EASY-nLC 1200 coupled online to an Exploris 480 Mass Spectrometer equipped with a Nanospray Flex Ion Source integrated with a column oven (PRSO-V1, Sonation) maintained at 50 °C. Peptides were separated using a nonlinear gradient: Mobile phase A was 0.1 vol% FA and 3 vol% acetonitrile (ACN) in water, Mobile phase B was 90 vol% ACN and 0.1 vol % FA. The gradient was operated at 250 nL/min flowing 3 vol% B for 3 min, 3 to 5 vol% B over 3 min, 5 to 17 vol % B over 120 min, 17 to 24 vol % B over 26 min, 24 to 30 vol% B over 14 min, 30 to 85 vol% B over 3 min.

Cn1cc2cc(-c3cc4[nH]nc(C5CC5)c4n(-c4ccc(OC(F)F)cc4)c3=O)ccc2n1 [AZ’9567]
differentially expressed liver proteins vs vehicle control (3 mg/kg BID): around 357 | differentially expressed liver proteins vs vehicle control (highest dose (30 mg/kg BID)): 519 | A2m Log2FC (liver protein, 3mg/kg): 1.7 | Abcb1 Log2FC (liver protein, 3mg/kg): 1.4 | Abhd1 Log2FC (liver protein, 3mg/kg): -1.8 | Acaca Log2FC (liver protein, 3mg/kg): -1 | Acbd4 Log2FC (liver protein, 3mg/kg): -0.7 | Acly Log2FC (liver protein, 3mg/kg): -1.1 | Acsl1 Log2FC (liver protein, 3mg/kg): -0.7 | Acsl3 Log2FC (liver protein, 3mg/kg): -0.8 | Acsm2 Log2FC (liver protein, 3mg/kg): 1.4 | Akap5 Log2FC (liver protein, 3mg/kg): -1.0 | Aldh1a1 Log2FC (liver protein, 3mg/kg): 1.7 | Aldh1a7 Log2FC (liver protein, 3mg/kg): 1.5 | Aldh16a1 Log2FC (liver protein, 3mg/kg): -0.6 | Alpl Log2FC (liver protein, 3mg/kg): 1.8 | Als2 Log2FC (liver protein, 3mg/kg): -1.1 | Anpep Log2FC (liver protein, 3mg/kg): 0.8 | Aox1 Log2FC (liver protein, 3mg/kg): -0.6 | Apeh Log2FC (liver protein, 3mg/kg): -0.7 | Apoc1 Log2FC (liver protein, 3mg/kg): -1.2 | Aqp8 Log2FC (liver protein, 3mg/kg): 0.8 | Asns Log2FC (liver protein, 3mg/kg): 1.6 | Baat Log2FC (liver protein, 3mg/kg): -0.8 | Banf1 Log2FC (liver protein, 3mg/kg): 0.8 | Bhmt2 Log2FC (liver protein, 3mg/kg): 1.2 | Bhmt Log2FC (liver protein, 3mg/kg): 1.7 | Brix1 Log2FC (liver protein, 3mg/kg): 0.7 | Ca5a Log2FC (liver protein, 3mg/kg): 1.1 | Carnmt1 Log2FC (liver protein, 3mg/kg): -1.4 | Cbs Log2FC (liver protein, 3mg/kg): -2.9 | Ccnd1 Log2FC (liver protein, 3mg/kg): 12.4 | Cdh1 Log2FC (liver protein, 3mg/kg): 0.7 | Cdo1 Log2FC (liver protein, 3mg/kg): -3.9 | Ces2c Log2FC (liver protein, 3mg/kg): 1.4 | Cfdp1 Log2FC (liver protein, 3mg/kg): 0.5 | Chid1 Log2FC (liver protein, 3mg/kg): 0.9 | Comt Log2FC (liver protein, 3mg/kg): -0.5 | Coq4 Log2FC (liver protein, 3mg/kg): 1.0 | Csad Log2FC (liver protein, 3mg/kg): -0.7 | Ctbs Log2FC (liver protein, 3mg/kg): -0.6 | Cyp2c23 Log2FC (liver protein, 3mg/kg): -0.6 | Cyp4a2 Log2FC (liver protein, 3mg/kg): 1.4 | Cyp4a10 Log2FC (liver protein, 3mg/kg): 1.7 | Dbnl Log2FC (liver protein, 3mg/kg): 0.6 | Dcakd Log2FC (liver protein, 3mg/kg): 1.0 | Dkc1 Log2FC (liver protein, 3mg/kg): 0.6 | Dmgdh Log2FC (liver protein, 3mg/kg): 1 | Dohh Log2FC (liver protein, 3mg/kg): 0.8 | Eif4ebp1 Log2FC (liver protein, 3mg/kg): 1.1 | Enpep Log2FC (liver protein, 3mg/kg): -0.8 | Fabp5 Log2FC (liver protein, 3mg/kg): -0.7 | Fads1 Log2FC (liver protein, 3mg/kg): -1.3 | Fasn Log2FC (liver protein, 3mg/kg): -0.7 | Fdft1 Log2FC (liver protein, 3mg/kg): 0.9 | Fdps Log2FC (liver protein, 3mg/kg): 0.5 | Fgr Log2FC (liver protein, 3mg/kg): 1.5 | Gimd1 Log2FC (liver protein, 3mg/kg): -0.7 | Gmpr Log2FC (liver protein, 3mg/kg): 0.8 | Gnl3 Log2FC (liver protein, 3mg/kg): 1.0 | Gnmt Log2FC (liver protein, 3mg/kg): 1.6 | Gpcpd1 Log2FC (liver protein, 3mg/kg): 1.2 | Gstm1 Log2FC (liver protein, 3mg/kg): -0.8 | Gstm2 Log2FC (liver protein, 3mg/kg): -0.8 | Gtpbp4 Log2FC (liver protein, 3mg/kg): 0.7 | Hexa Log2FC (liver protein, 3mg/kg): -0.6 | Hfe Log2FC (liver protein, 3mg/kg): 1.1 | Hmgcs1 Log2FC (liver protein, 3mg/kg): 1.3 | Hmgn2 Log2FC (liver protein, 3mg/kg): 1.0 | Hnrnpa1 Log2FC (liver protein, 3mg/kg): 1.1 | Hsd17b7 Log2FC (liver protein, 3mg/kg): 0.6 | Idi1 Log2FC (liver protein, 3mg/kg): 0.9 | Igf1 Log2FC (liver protein, 3mg/kg): -1.4 | Kalrn Log2FC (liver protein, 3mg/kg): 0.7 | Lipa Log2FC (liver protein, 3mg/kg): -0.8 | Lrrc8d Log2FC (liver protein, 3mg/kg): 0.9 | Lyrm2 Log2FC (liver protein, 3mg/kg): 0.8 | Mat1a Log2FC (liver protein, 3mg/kg): 0.9 | Mat2a Log2FC (liver protein, 3mg/kg): 0.8 | Mat2b Log2FC (liver protein, 3mg/kg): -1.9 | Me1 Log2FC (liver protein, 3mg/kg): -1 | Mettl7b Log2FC (liver protein, 3mg/kg): -0.6 | Mettl26 Log2FC (liver protein, 3mg/kg): -1.8 | Minpp1 Log2FC (liver protein, 3mg/kg): 0.6 | Mospd1 Log2FC (liver protein, 3mg/kg): -0.5 | Mt1 Log2FC (liver protein, 3mg/kg): 6.2 | Mtr Log2FC (liver protein, 3mg/kg): 1.1 | Mybbp1a Log2FC (liver protein, 3mg/kg): 0.7
